Data on one molecule can be found in EP0508725A1, “Novel process for the preparation of 8a-aza-8a-homoerythromycin cyclic iminoethers” (MERCK & CO. INC., priority 1991, dated 1992).

Some results are limits rather than exact numbers.

Common to all, as to test: MIC, liquid turbidimetric microtiter method in brain heart infusion broth
Holding throughout (format): cell-based

Assay [1] concerns Streptococcus pyogenes MB 5406. The source says: (§1) The antibacterial activities of compound (VII) against a panel of aerobic Gram positive and negative bacteria is shown in the following Table. The assay employs a liquid turbidimetric microtiter method for the determination of the minimum inhibitory concentration (MIC) in brain heart infusion broth. […] The MIC is generally not an absolute value but rather a concentration ranged that falls within a two-fold dilution limit. Generally twelve two-fold dilutions of the test compound are employed with the initial concentration set at 128 mcg/ml.

The subject of assay [2] is Yersinia enterocoltica CL 1598.
Excerpt: as §1

Assay [3] concerns Streptococcus agalactiae CL 1343.
Excerpt: as §1

Assay [4] has as its system Staphylococcus haemolyticus MB 5412.
Excerpt: as §1

The subject of assay [5] is Streptococcus pneumoniae CL 2883.
Excerpt: as §1

The subject of assay [6] is Streptococcus pyogenes MB 2874.
Excerpt: as §1

Assay [7] deals with Steptococcus viridans CL 2943.
Excerpt: as §1

In assay [8] the test system is Enterococcus faecium MB 5416.
Excerpt: as §1

The next assay has as its system Escherichia coli MB 2884.
Excerpt: as §1

Assay [9] deals with Enterococcus faecalis MB 5407.
Excerpt: as §1

For assay [10], the system named is Klebsiella pneumoniae MB 4005.
Excerpt: as §1

Assay [11] concerns Pseudomonas stutzeri MB 1231.
Excerpt: as §1

Assay [12] deals with Staphylococcus epidermidis MB 5414.
Excerpt: as §1

For a further assay, the system named is Escherichia coli MB 4926.
Excerpt: as §1

For assay [13], the system named is Staphylococcus aureus MB 2865.
Excerpt: as §1

For the molecule `CC[C@H]1OC(=O)[C@H](C)[C@@H](O[C@H]2C[C@@](C)(OC)[C@@H](O)[C@H](C)O2)[C@H](C)[C@@H](O[C@@H]2O[C@H](C)C[C@H](N(C)C)[C@H]2O)[C@](C)(O)C[C@@H](C)N=C2O[C@@]1(C)[C@H](O)[C@H]2C` [Compound (VII), 9-Deoxo-12-deoxy-9,12-epoxy-8a,9-didehydro-8a-aza-8a-homoerythromycin A], the “MIC Values” in [1] stood at 128 mcg/m; in assay [2] it was 128 mcg/m; in assay [3], 1 mcg/m; in assay [4], 8 mcg/m; in [5] it was 0.5 mcg/m; in assay [6], 1 mcg/m. Also, the “MIC Values” is recorded as 16 mcg/m in assay [7]; 8 mcg/m in assay [8]; 128 mcg/m in the assay with Escherichia coli MB 2884; 32 mcg/m in [9]; over 128 mcg/m in assay [10]; 0.5 mcg/m in [11]. Besides, the “MIC Values” is on record as 32 mcg/m in [12], 8 mcg/m in the assay on Escherichia coli MB 4926 and 16 mcg/m in assay [13].
